# Source: US8017612B2, “Piperazine compound and use thereof as a HCV polymerase inhibitor” (priority 2006, dated 2011)
# pIC50: −log10 of the molar value.
# Experiments:
# [1] = target: T1, HCV polymerase (NS5B) type 1b (Hepatitis C virus genotype 1b, UniProt P26663); test: Assay of enzyme (HCV polymerase) inhibitory activity, type 1b enzyme; format: biochemical, HCV BK strain (type 1b); details: HCV polymerase inhibitory activity (IC50), 1b, type 1b enzyme 0.5 μg/ml, 25° C., 60 min
# T1 construct: a region encoding NS5B (J Virol 1991 March, 65(3), 1105-13, 544 amino acids after deletion of 47 amino acids on the C-terminal); 6xHis (C); made in house; host or cells: Escherichia coli
# Outline: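 Polymerase activity was followed as radiolabelled UTP incorporation by E. coli-expressed, His-tagged NS5B of HCV type 1b lacking its last 47 residues. Conditions: 2 μM UTP, 50 μM other NTPs, Mg2+ buffer at pH 7.5, 25 °C for 60 min. Inhibition relative to compound-free reactions gave IC50.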
# [2] = target: T2, HCV polymerase (NS5B) type 1a (Hepatitis C virus genotype 1a, UniProt P26664); test: Assay of enzyme (HCV polymerase) inhibitory activity, type 1a enzyme; format: biochemical, HCV type 1a (cloned from the blood of patients); details: HCV polymerase inhibitory activity (IC50), 1a, type 1a enzyme 1.5 μg/ml, 25° C., 60 min
# T2 construct: made in house; host or cells: Escherichia coli (by the 'similar method' of the 1b enzyme)
# Outline: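 IC50 values derive from radioactivity of newly synthesized RNA with versus without test compound. The enzyme was C-terminally truncated type 1a NS5B, 1.5 μg/ml, run 60 min at 25° C with 3H-UTP-labelled nucleotides.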
Compound,pIC50 [1],pIC50 [2]
"CCCc1ccc(CNC(=O)[C@H]2CN(c3cnc4cncnc4n3)CCN2S(=O)(=O)c2ccc(OC(F)(F)F)cc2)cc1 [Example 574, (R)-4-pteridin-7-yl-1-(4-trifluoromethoxy-benzenesulfonyl)-piperazine-2-carboxylic acid 4-propyl-benzylamide]",> 7.00,> 7.00
"CC(C)(C)c1ccc(CNC(=O)[C@H]2CN(c3cnc(CO)c(N)n3)CCN2S(=O)(=O)c2ccc(OC(F)(F)F)cc2)cc1 [Example 575, (R)-6′-amino-5′-hydroxymethyl-4-(4-trifluoromethoxy-benzenesulfonyl)-3,4,5,6-tetrahydro-2H-[1,2′]bipyrazinyl-3-carboxylic acid 4-tert-butyl-benzylamide]",> 7.00,> 7.00
"CCC(F)(F)c1ccc(CNC(=O)[C@H]2CN(c3nc(C)ns3)CCN2S(=O)(=O)c2ccc(OC(F)(F)F)cc2)cc1 [Example 576, (R)-4-(3-methyl-[1,2,4]thiadiazol-5-yl)-1-(4-trifluoromethoxy-benzenesulfonyl)-piperazine-2-carboxylic acid 4-(1,1-difluoro-propyl)-benzylamide]",> 7.00,> 7.00
"Cc1nc(N2CCN(S(=O)(=O)c3ccc(OC(F)(F)F)cc3)[C@@H](C(=O)NCc3ccc(C(C)(C)C)cc3)C2)sc1C#N [Example 577, (R)-4-(5-cyano-4-methyl-thiazol-2-yl)-1-(4-trifluoromethoxy-benzenesulfonyl)-piperazine-2-carboxylic acid 4-tert-butyl-benzylamide]",> 7.00,> 7.00
"CC(C)(C)c1ccc(CNC(=O)[C@H]2CN(c3nc4c(s3)C(=O)NCC4)CCN2S(=O)(=O)c2ccc(OC(F)(F)F)cc2)cc1 [Example 578, (R)-4-(4-oxo-4,5,6,7-tetrahydro-thiazolo[5,4-c]pyridin-2-yl)-1-(4-trifluoromethoxy-benzenesulfonyl)-piperazine-2-carboxylic acid 4-tert-butyl-benzylamide]",> 7.00,> 7.00
"CC(C)(C)c1ccc(CNC(=O)[C@H]2CN(c3cnc4c(n3)NC(=O)OC4)CCN2S(=O)(=O)c2ccc(OC(F)(F)F)cc2)cc1 [Example 579, (R)-4-(2-oxo-1,4-dihydro-2H-pyrazino[2,3-d][1,3]oxazin-7-yl)-1-(4-trifluoromethoxy-benzenesulfonyl)-piperazine-2-carboxylic acid 4-tert-butyl-benzylamide]",> 7.00,> 7.00
"CCC(F)(F)c1ccc(CNC(=O)[C@H]2CN(c3ccncn3)CCN2S(=O)(=O)c2ccc(OC(F)(F)F)cc2)cc1 [Example 580, (R)-4-pyrimidin-4-yl-1-(4-trifluoromethoxy-benzenesulfonyl)-piperazine-2-carboxylic acid 4-(1,1-difluoro-propyl)-benzylamide]",> 7.00,> 7.00
"CC(C)(C)c1ccc(CNC(=O)[C@H]2CN(c3ccnc(O)n3)CCN2S(=O)(=O)c2ccc(OC(F)(F)F)cc2)cc1 [Example 581, (R)-4-(2-hydroxy-pyrimidin-4-yl)-1-(4-trifluoromethoxy-benzenesulfonyl)-piperazine-2-carboxylic acid 4-tert-butyl-benzylamide]",> 7.00,> 7.00
"CCOC(=O)c1sc(N2CCN(S(=O)(=O)c3ccc(OC(F)(F)F)cc3)[C@@H](C(=O)NCc3ccc(C(C)(C)C)cc3)C2)nc1N [Example 582, 4-amino-2-[(R)-3-(4-tert-butyl-benzylcarbamoyl)-4-(4-trifluoromethoxy-benzenesulfonyl)-piperazin-1-yl]-thiazole-5-carboxylic acid ethyl ester]",6.00 to 7.00,6.00 to 7.00
"Cc1nc(N2CCN(S(=O)(=O)c3ccc(OC(F)(F)F)cc3)[C@@H](C(=O)NCc3ccc(C(C)(C)C)cc3)C2)sc1-c1nnn[nH]1 [Example 583, (R)-4-[4-methyl-5-(1H-tetrazol-5-yl)-thiazol-2-yl]-1-(4-trifluoromethoxy-benzenesulfonyl)-piperazine-2-carboxylic acid 4-tert-butyl-benzylamide]",> 7.00,> 7.00
"CCC(F)(F)c1ccc(CNC(=O)[C@H]2CN(c3ccnc(N)n3)CCN2S(=O)(=O)c2ccc(OC(F)(F)F)cc2)cc1 [Example 584, (R)-4-(2-amino-pyrimidin-4-yl)-1-(4-trifluoromethoxy-benzenesulfonyl)-piperazine-2-carboxylic acid 4-(1,1-difluoro-propyl)-benzylamide]",> 7.00,> 7.00
"CCC(F)(F)c1ccc(CNC(=O)[C@H]2CN(c3nccc(N)n3)CCN2S(=O)(=O)c2ccc(OC(F)(F)F)cc2)cc1 [Example 585, (R)-4-(4-amino-pyrimidin-2-yl)-1-(4-trifluoromethoxy-benzenesulfonyl)-piperazine-2-carboxylic acid 4-(1,1-difluoro-propyl)-benzylamide]",6.00 to 7.00,6.00 to 7.00
"CCC(F)(F)c1ccc(CNC(=O)[C@H]2CN(c3cnc(C(N)=O)cn3)CCN2S(=O)(=O)c2ccc(OC(F)(F)F)cc2)cc1 [Example 586, (R)-4-(4-trifluoromethoxy-benzenesulfonyl)-3,4,5,6-tetrahydro-2H-[1,2′]bipyrazinyl-3,5′-dicarboxylic acid 5′-amide 3-[4-(1,1-difluoro-propyl)-benzylamide]]",> 7.00,> 7.00
"CC(C)(C)OC(=O)N1CCc2nc(N3CCN(S(=O)(=O)c4ccc(OC(F)(F)F)cc4)[C@@H](C(=O)NCc4ccc(C(C)(C)C)cc4)C3)sc2C1 [Example 587, 2-[(R)-3-(4-tert-butyl-benzylcarbamoyl)-4-(4-trifluoromethoxy-benzenesulfonyl)-piperazin-1-yl]-6,7-dihydro-4H-thiazolo[5,4-c]pyridine-5-carboxylic acid tert-butyl ester]",> 7.00,6.00 to 7.00
"CC(C)(C)c1ccc(CNC(=O)[C@H]2CN(c3nc4c(s3)CNCC4)CCN2S(=O)(=O)c2ccc(OC(F)(F)F)cc2)cc1 [Example 588, (R)-4-(4,5,6,7-tetrahydro-thiazolo[5,4-c]pyridin-2-yl)-1-(4-trifluoromethoxy-benzenesulfonyl)-piperazine-2-carboxylic acid 4-tert-butyl-benzylamide]",> 7.00,> 7.00
"CC(=O)N1CCc2nc(N3CCN(S(=O)(=O)c4ccc(OC(F)(F)F)cc4)[C@@H](C(=O)NCc4ccc(C(C)(C)C)cc4)C3)sc2C1 [Example 589, (R)-4-(5-acetyl-4,5,6,7-tetrahydro-thiazolo[5,4-c]pyridin-2-yl)-1-(4-trifluoromethoxy-benzenesulfonyl)-piperazine-2-carboxylic acid 4-tert-butyl-benzylamide]",> 7.00,> 7.00
"CCC(F)(F)c1ccc(CNC(=O)[C@H]2CN(C(=O)Cc3ccncn3)CCN2S(=O)(=O)c2ccc(OC(F)(F)F)cc2)cc1 [Example 590, (R)-4-(2-pyrimidin-4-yl-acetyl)-1-(4-trifluoromethoxy-benzenesulfonyl)-piperazine-2-carboxylic acid 4-(1,1-difluoro-propyl)-benzylamide]",> 7.00,> 7.00
"CCC(F)(F)c1ccc(CNC(=O)[C@H]2CN(c3cnc(C#N)cn3)CCN2S(=O)(=O)c2ccc(OC(F)(F)F)cc2)cc1 [Example 591, (R)-5′-cyano-4-(4-trifluoromethoxy-benzenesulfonyl)-3,4,5,6-tetrahydro-2H-[1,2′]bipyrazinyl-3-carboxylic acid 4-(1,1-difluoro-propyl)-benzylamide]",> 7.00,> 7.00
"CCC(F)(F)c1ccc(CNC(=O)[C@H]2CN(c3cnc(-c4nnn[nH]4)cn3)CCN2S(=O)(=O)c2ccc(OC(F)(F)F)cc2)cc1 [Example 592, (R)-5′-(1H-tetrazol-5-yl)-4-(4-trifluoromethoxy-benzenesulfonyl)-3,4,5,6-tetrahydro-2H-[1,2′]bipyrazinyl-3-carboxylic acid 4-(1,1-difluoro-propyl)-benzylamide]",> 7.00,> 7.00
"CC(C)(C)c1ccc(CNC(=O)[C@H]2CN(c3cnc(CN4CCOCC4)cn3)CCN2S(=O)(=O)c2ccc(OC(F)(F)F)cc2)cc1 [Example 593, (R)-5′-morpholin-4-ylmethyl-4-(4-trifluoromethoxy-benzenesulfonyl)-3,4,5,6-tetrahydro-2H-[1,2′]bipyrazinyl-3-carboxylic acid 4-tert-butyl-benzylamide]",> 7.00,> 7.00
"CN1CCN(Cc2cnc(N3CCN(S(=O)(=O)c4ccc(OC(F)(F)F)cc4)[C@@H](C(=O)NCc4ccc(C(C)(C)C)cc4)C3)cn2)CC1 [Example 594, (R)-5′-(4-methyl-piperazin-1-ylmethyl)-4-(4-trifluoromethoxy-benzenesulfonyl)-3,4,5,6-tetrahydro-2H-[1,2′]bipyrazinyl-3-carboxylic acid 4-tert-butyl-benzylamide]",> 7.00,> 7.00
"CCC(F)(F)c1ccc(CNC(=O)[C@H]2CN(c3cnc(CN(C)C)cn3)CCN2S(=O)(=O)c2ccc(OC(F)(F)F)cc2)cc1 [Example 595, (R)-5′-dimethylaminomethyl-4-(4-trifluoromethoxy-benzenesulfonyl)-3,4,5,6-tetrahydro-2H-[1,2′]bipyrazinyl-3-carboxylic acid 4-(1,1-difluoro-propyl)-benzylamide]",> 7.00,> 7.00
